From patent US20150265682A1, “THERAPEUTIC METHODS AND COMPOSITIONS FOR TREATING DIABETES” (Orient Europharma Co., Ltd., priority 2014, published 2015)

Key:
[1] = test system: normal, T1DM and T2DM mice; assay: Insulin tolerance test (ITT): activity of lowering plasma glucose (AL); assay type: in vivo, ICR mice; conditions: 30 min after insulin
Procedure: T1DM mice were induced by a known method. In brief, an intraperitoneal injection of streptozotocin (STZ; Sigma Chemical Co.; St. Louis, Mo.) at 150 mg/kg was performed in mice that were fasted for 48 h. The induction of T1DM was assessed and confirmed when the mice had plasma glucose levels ≧350 mg/dL, accompanied with polyuria, hyperphagia and decreased body weight. The control mice group received an injection of vehicle and then carried out for 4 weeks. T2DM mice were induced by maintaining on a fat-rich chow diet and fructose-sweetened water for 4 weeks from the age of 4-5 weeks according to previous methods. The induction T2DM mice were assessed by measuring fasting plasma glucose levels and confirmed when plasma glucose level was ≧150 mg/dL after a 4-week induction.
Blood samples were collected from the orbital vascular plexus of mice under anesthesia with sodium pentobarbital (80 mg/kg, intraperitoneal, Sigma Chemical Co., St. Louis, Mo., USA). Blood samples were then centrifuged at 13000 rpm for 5 min, and the plasma was kept on ice prior to the assay. The plasma glucose concentration was measured using commercial kits following manufacturer's instructions (BioSystems S. A., Barcelona, Spain).
To perform OGTT, mice were fasted overnight, divided into 2 groups and then administered a vehicle control and 5 mg/kg borapetoside C. This was followed by administration of a glucose solution at 2 g/kg via tube feeding. Blood samples were withdrawn from the orbital vascular plexus at intervals of 30, 60, 120, and 150 min after glucose administration. For the ITT, mice were fasted for 3 h. Human insulin (Insulin Actrapid) HM; Novo Nordisk, Denmark) was injected intraperitoneally after an intraperitoneal administration of 0.1 mg/kg borapetoside C for 30 min. Blood samples were collected from the orbital vascular plexus at the timed intervals mentioned above.
Therefore, the effects of borapetoside C on insulin tolerance were tested in this study. The non-diabetic, T1DM, and T2DM mice were injected with insulin at various doses (i.e., 0.1 IU/kg, 0.5 IU/kg, and 1.0 IU/kg) in conjunction with either borapetoside C (0.1 mg/kg) or a vehicle control (Table 3), and their plasma glucose levels were examined before and 30 min after insulin injection. The activity of lowering plasma glucose levels (AL) was calculated by the formula: (Gi−Gt)/Gi×100%, where the Gi was the initial glucose concentration and G1 was the plasma glucose concentration after 30-min treatment with insulin. Insulin reduced the plasma glucose levels in both normal and diabetic mice, and the glucose levels were further decreased when insulin was co-administered with borapetoside C to the mice.

[2] = test system: soleus muscle of normal, type 1 DM and type 2 DM mice; assay: Glycogen content in soleus muscle in vivo (borapetoside A); parameters: species or system ICR mice; conditions: borapetoside A 10 mgkg^−1 i.p. 60 minutes, insulin 0.5 IUkg^−1
Procedure: (§1) After three days of acclimatization, the mice had free access to a standard rodent chow (normal mice), a standard rodent chow after single […] streptozotocin (STZ) intraperitoneal injection (T1DM mice), and a fat-rich chow diet and fructose-sweetened water (T2DM mice) for 4 weeks. The induction of Type 1 DM was assessed and confirmed when the mice had plasma glucose levels ≧350 mgdL^−1, accompanied with polyuria, hyperphagia and decreased body weight. The induction Type 2 DM in the mice was assessed by measuring fasting plasma glucose levels and confirmed when plasma glucose level was ≧150 mgdL^−1 after the 4-week induction. The animals were assigned randomly into three groups, with seven animals in each group. In group I, the mice were treated with vehicle, 2% DMSO in normal saline, as the negative control. In group II, the mice were intraperitoneally treated with borapetoside A (0.1-10 mgkg^−1). In group Ill, the positive control, the mice received intraperitoneally metformin (300 mgkg^−1; Sigma Chemical Co., St. Louis, Mo., U.S.A.) or insulin (0.5 IUkg^−1; Insulin Actrapid® HM; Novo Nordisk, Denmark). In the acute study, mice under anesthesia received a single intraperitoneal administration of borapetoside A, negative control, or positive control. In the subacute study, mice received intraperitoneal administrations of borapetoside A, vehicle, or insulin twice a day for seven days.
(§2) The mice were injected with borapetoside A (10 mgkg^−1, interperitoneal) for 60 minutes or insulin (0.5 IUkg^−1, interperitoneal) for 30 minutes. After the treatment, the anesthetic mice were sacrificed by cervical dislocation to collect the soleus muscle and liver. About 40 mg of each sample was dissolved in 1 mol/L KOH at 75° C. for 30 min. The dissolved homogenate was neutralized by glacial acetic acid and then incubated overnight in acetate buffer (0.3 mol/L sodium acetate, pH 4.8) containing amyloglucosidase (Sigma, St. Louis, Mo.). The mixture was then neutralized with 1 mol/L NaOH to stop the reaction. The glycogen contents in the tissue samples were determined as μg of glucose per mg of tissue (wet weight).

[3] = test system: normal mice and mice with type 2 DM; assay: Intraperitoneal glucose tolerance test (IPGTT); assay type: in vivo, ICR mice
Procedure: as §1
Blood samples were collected from the orbital vascular plexus of the mice under anesthesia. Blood samples were then centrifuged at 13000 rpm for 5 min, and the plasma samples were collected and kept on ice prior to the assay. The plasma glucose concentration was measured by Glucose Kit Reagent (Biosystems S. A., Barcelona, Spain) following the manufacturer's instructions, and the insulin levels were estimated using mouse insulin ELISA kit (Mercodia AB, Uppsala, Sweden).
The mice were maintained under anesthesia throughout the procedure. Glucose (2.0 gkg^−1) was administered intraperitoneally. Blood samples were collected from the orbital vascular plexus at 0, 30, 60, 120 min. The concentrations of the plasma glucose were measured, and the values of AUC were calculated accordantly.

[4] = test system: liver of normal, type 1 DM and type 2 DM mice; assay: Glycogen content in liver in vivo (borapetoside A); parameters: species or system ICR mice; conditions: borapetoside A 10 mgkg^−1 i.p. 60 minutes, insulin 0.5 IUkg^−1
Procedure: as §1, §2

[5] = Normal mice, insulin 0.1 IU/kg with borapetoside C 0.1 mg/kg or vehicle
[6] = Normal mice, insulin 0.5 IU/kg with borapetoside C 0.1 mg/kg or vehicle
[7] = Normal mice, insulin 1.0 IU/kg with borapetoside C 0.1 mg/kg or vehicle
[8] = T1DM mice, insulin 0.1 IU/kg with borapetoside C 0.1 mg/kg or vehicle
[9] = T1DM mice, insulin 0.5 IU/kg with borapetoside C 0.1 mg/kg or vehicle
[10] = T1DM mice, insulin 1.0 IU/kg with borapetoside C 0.1 mg/kg or vehicle
[11] = T2DM mice, insulin 0.1 IU/kg with borapetoside C 0.1 mg/kg or vehicle
[12] = T2DM mice, insulin 0.5 IU/kg with borapetoside C 0.1 mg/kg or vehicle
[13] = T2DM mice, insulin 1.0 IU/kg with borapetoside C 0.1 mg/kg or vehicle

Molecule	AL (activity of lowering plasma glucose levels) [1, 5] [%]	AL (activity of lowering plasma glucose levels) [1, 6] [%]	AL (activity of lowering plasma glucose levels) [1, 7] [%]	AL (activity of lowering plasma glucose levels) [1, 8] [%]	AL (activity of lowering plasma glucose levels) [1, 9] [%]	AL (activity of lowering plasma glucose levels) [1, 10] [%]	AL (activity of lowering plasma glucose levels) [1, 11] [%]	AL (activity of lowering plasma glucose levels) [1, 12] [%]	AL (activity of lowering plasma glucose levels) [1, 13] [%]	glycogen content in soleus muscle ([2]; mice with type 2 DM)	glycogen content in liver ([4]; mice with type 2 DM)	other results
COC(=O)C1=CCC[C@H]2[C@]3(C)C[C@@H](c4ccoc4)OC(=O)[C@@H]3C[C@@H](O[C@@H]3O[C@H](CO)[C@@H](O)[C@H](O)[C@H]3O)[C@@]12C [Borapetoside C, borapetoside C]	17.2 ± 1.2	45.7 ± 3.7	64.7 ± 1.8	10.5 ± 1.4	18.9 ± 2.1	32.2 ± 2.1	24.0 ± 1.1	31.6 ± 1.6	42.5 ± 0.8	–	–	–
C[C@@]12C[C@@H](c3ccoc3)OC(=O)[C@@H]1C[C@@H]1OC(=O)[C@@]3(O)[C@@H](O[C@@H]4O[C@H](CO)[C@@H](O)[C@H](O)[C@H]4O)CC[C@@H]2[C@@]13C [Borapetoside A, borapetoside A]	–	–	–	–	–	–	–	–	–	171.8±12.0 % of vehicle control	146.1±12.0 % of vehicle control	glycogen content in soleus muscle ([2]; mice with type 1 DM): 155.6±8.6 % of vehicle control; glycogen content in soleus muscle ([2]; normal mice): 116.5±4.2 % of vehicle control; increase of plasma glucose level at 30 min in IPGTT, compared to the vehicle group ([3]; normal and type 2 DM mice, borapetoside A 0.1, 1 and 10 mgkg^−1, metformin): significantly suppressed; area under the curve (AUC) in IPGTT ([3]; normal mice, 0.1 mgkg^−1): 78.8±3.0 % of vehicle control; area under the curve (AUC) in IPGTT ([3]; normal mice, 1 mgkg^−1): 69.9±7.1 % of vehicle control; area under the curve (AUC) in IPGTT ([3]; normal mice, 10 mgkg^−1): 68.9±3.5 % of vehicle control; area under the curve (AUC) in IPGTT ([3]; type 2 DM bearing mice, 0.1 mgkg^−1): 74.9±4.5 % of vehicle control; area under the curve (AUC) in IPGTT ([3]; type 2 DM bearing mice, 1 mgkg^−1): 71.1±3.2 % of vehicle control; area under the curve (AUC) in IPGTT ([3]; type 2 DM bearing mice, 10 mgkg^−1): 68.9±1.9 % of vehicle control; glycogen content in liver ([4]; mice with type 1 DM): 196.9±15.6 % of vehicle control; glycogen content in liver ([4]; normal mice): 257.8±15.8 % of vehicle control
Insulin: human insulin, Insulin Actrapid HM, a short-acting insulin provided by Novo Nordisk [reference compound]	14.6 ± 0.8	37.5 ± 1.1	56.8 ± 1.9	8.7 ± 1.6	11.5 ± 0.6	24.0 ± 1.3	19.5 ± 1.5	27.5 ± 2.6	32.0 ± 1.1	failed to enhance	failed to enhance	–
